Values quoted from earlier work, collected in US6214381A, “Methazolamide composition and method of use” (Effcon, Inc., priority 1998, dated 2001).

Conditions: background statement

water solubility: water-insoluble
Compound: CC(=O)N=c1sc(S(N)(=O)=O)nn1C [Methazolamide, methazolamide]
